Reference: publication PMC5679667 (PLoS ONE, 2017)

Biological target: T1, ecAT3.10 (extracellular ATeam3.10) (Bacillus sp. PS3, UniProt P07678)
T1 construct: gene atpC; ATeam3.10 (epsilon subunit between CFP and YFP) with N-terminal IgK leader and C-terminal PDGFR transmembrane anchor; on surface of Neuro2A cells
Test: live-cell FRET/CFP ratio imaging
Type: cell-based
Conditions: Neuro2A cells, continuous perfusion, pH 7.3, room temperature; printed error probably a misprint

T1 sequence (P07678 whole entry): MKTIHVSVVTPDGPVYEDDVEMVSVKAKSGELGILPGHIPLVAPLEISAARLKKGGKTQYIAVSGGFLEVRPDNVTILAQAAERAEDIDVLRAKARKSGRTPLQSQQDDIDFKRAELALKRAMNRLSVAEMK

Nc1ncnc2c1ncn2[C@@H]1O[C@H](COP(=O)(O)OP(=O)(O)O)[C@@H](O)[C@H]1O [ADP]
fold increase in ratio signal at 100 μM: 1.026 ± 1.005
